# According to patent publication US11154529B2, “Phosphaplatin liquid formulations” (Phosplatin Therapeutics Inc., priority 2016, dated 2021):
# Assays:
# [1] = Design of Experiment study on pyrophosphate ion stabilization, stability at 60° C.; assay type: physicochemical; conditions: added pyrophosphate ion as little as ~0.25 molar equivalent
# Excerpt: Specifically the presence of pyrophosphate results in the rapid disappearance of the (R,R)-pyrodach-2 dimer impurity and the RRT-3.1-3.2 impurity.
# [2] = Ready-to-use formulation stability at 40° C./75% RH, 5 mg/mL (R,R)-pyrodach-2 in 10 mM Sodium Phosphate Buffer, 5.2 mM Sodium Pyrophosphate at pH 7.5, 10 mL vials; assay type: physicochemical
# Procedure: Stability data on the formulation with added pyrophosphate at 40° C./75% RH in Table 12 is even more dramatic. […] [table] [table] • Transfer 1419.6 mg±14.0 mg of dibasic sodium phosphate anhydrous to a 1-L volumetric flask. • Transfer 2298.5 mg±23.0 mg of tetrasodium pyrophosphate decahydrate into the same 1-L volumetric flask. • Fill flask to approximately 75% volume with sterile water for injection, swirl as needed to dissolve all solids. • Volumetrically transfer 8.0 mL of 1N NaOH to flask. • Dilute flask to volume with water and mix well. • Record the pH of final solution. This is the vehicle. • Determine the tare weight of a 500-mL compounding vessel with stir bar. • Transfer 2500.1 mg±25.0 mg of (R,R)-pyrodach-2 to the vessel. • Transfer 450.0 g±0.1 g of the vehicle to the vessel and stir to dissolve solids. • Determine the initial pH of the solution. • Slowly adjust the pH of the solution to 7.5±0.1 by adding additional N NaOH. • Determine the gross solution weight and dilute the solution weight to 500.0 g±0.1 g by adding additional vehicle into the compounding vessel. Density=1.00 g/mL. • Stir the final solution for an additional 5 minutes. • Determine the pH of final solution. • Pass the entire solution through a 0.22 μm PVDF Stericup filter into a sterile collection vessel. • Conduct the following in a laminar flow hood; fill 10-mL sterile tubing vials with 10 mL of solution, stoppered with a sterile Flurotec stopper, and crimp-capped with a flip-off seal. • Place vials in 40° C./75% RH and 25° C./60% RH stability chambers. HPLC method in Example 3 to monitor purity and impurities.
smiles,measurement,setting,value
"O=P1(O)OP(=O)(O)[O][Pt]2([NH][C@@H]3CCCC[C@H]3[NH]2)[O]1 (stereo partly drawn) [(R,R)-pyrodach-2, (R,R)-trans-1,2-cyclohexanediamine-(dihydrogenpyrophosphato)platinum(II)]","overall rate of (R,R)-pyrodach-2 degradation and impurity appearance",[1],dramatic decrease
same,Individual Related Substances PT-112 Dimer,[2]; 1 Month,"ND (ND = Not Detected, or <0.05%)"
same,Individual Related Substances RRT 0.28-0.29,[2]; 1 Month,0.10%
same,Individual Related Substances RRT 0.50-0.51,[2]; 1 Month,0.10%
same,Individual Related Substances RRT 0.58,[2]; 1 Month,0.41%
same,Individual Related Substances RRT 0.73-0.74,[2]; 1 Month,0.68%
same,Individual Related Substances RRT 0.92,[2]; 1 Month,"ND (ND = Not Detected, or <0.05%)"
same,Individual Related Substances RRT 1.57,[2]; 1 Month,"ND (ND = Not Detected, or <0.05%)"
same,Individual Related Substances RRT 3.66-3.71,[2]; 1 Month,"ND (ND = Not Detected, or <0.05%)"
same,Potency (Assay),[2]; 1 Month,101.6%
same,Total Related Substances,[2]; 1 Month,1.3%
same,pH,[2]; 1 Month,7.6
same,Individual Related Substances PT-112 Dimer,[2]; 2 Months,"ND (ND = Not Detected, or <0.05%)"
same,Individual Related Substances RRT 0.28-0.29,[2]; 2 Months,0.19%
same,Individual Related Substances RRT 0.50-0.51,[2]; 2 Months,0.19%
same,Individual Related Substances RRT 0.58,[2]; 2 Months,0.41%
same,Individual Related Substances RRT 0.73-0.74,[2]; 2 Months,0.88%
same,Individual Related Substances RRT 0.92,[2]; 2 Months,"ND (ND = Not Detected, or <0.05%)"
same,Individual Related Substances RRT 1.57,[2]; 2 Months,"ND (ND = Not Detected, or <0.05%)"
same,Individual Related Substances RRT 3.66-3.71,[2]; 2 Months,0.07%
same,Potency (Assay),[2]; 2 Months,103.8%
same,Total Related Substances,[2]; 2 Months,1.7%
same,pH,[2]; 2 Months,7.6
same,Individual Related Substances PT-112 Dimer,[2]; 3 Months,"ND (ND = Not Detected, or <0.05%)"
same,Individual Related Substances RRT 0.28-0.29,[2]; 3 Months,0.16%
same,Individual Related Substances RRT 0.50-0.51,[2]; 3 Months,0.16%
same,Individual Related Substances RRT 0.58,[2]; 3 Months,0.48%
same,Individual Related Substances RRT 0.73-0.74,[2]; 3 Months,0.86%
same,Individual Related Substances RRT 0.92,[2]; 3 Months,"ND (ND = Not Detected, or <0.05%)"
same,Individual Related Substances RRT 1.57,[2]; 3 Months,"ND (ND = Not Detected, or <0.05%)"
same,Individual Related Substances RRT 3.66-3.71,[2]; 3 Months,0.11%
same,Potency (Assay),[2]; 3 Months,101.5%
same,Total Related Substances,[2]; 3 Months,1.8%
same,pH,[2]; 3 Months,7.5
same,Individual Related Substances PT-112 Dimer,[2]; 6 Months,"ND (ND = Not Detected, or <0.05%)"
same,Individual Related Substances RRT 0.28-0.29,[2]; 6 Months,0.17%
same,Individual Related Substances RRT 0.50-0.51,[2]; 6 Months,0.22%
same,Individual Related Substances RRT 0.58,[2]; 6 Months,0.47%
same,Individual Related Substances RRT 0.73-0.74,[2]; 6 Months,0.81%
same,Individual Related Substances RRT 0.92,[2]; 6 Months,"ND (ND = Not Detected, or <0.05%)"
same,Individual Related Substances RRT 1.57,[2]; 6 Months,"ND (ND = Not Detected, or <0.05%)"
same,Individual Related Substances RRT 3.66-3.71,[2]; 6 Months,0.18%
same,Potency (Assay),[2]; 6 Months,102.8%
same,Total Related Substances,[2]; 6 Months,1.9%
same,pH,[2]; 6 Months,7.5
same,Individual Related Substances PT-112 Dimer,[2]; Initial,0.16%
same,Individual Related Substances RRT 0.28-0.29,[2]; Initial,0.14%
same,Individual Related Substances RRT 0.50-0.51,[2]; Initial,0.08%
same,Individual Related Substances RRT 0.58,[2]; Initial,0.34%
same,Individual Related Substances RRT 0.73-0.74,[2]; Initial,0.83%
same,Individual Related Substances RRT 0.92,[2]; Initial,0.05%
same,Individual Related Substances RRT 1.57,[2]; Initial,0.12%
same,Individual Related Substances RRT 3.66-3.71,[2]; Initial,"ND (ND = Not Detected, or <0.05%)"
same,Potency (Assay),[2]; Initial,102.0%
same,Total Related Substances,[2]; Initial,1.7%
same,pH,[2]; Initial,7.5
